Data reported in patent US5773444A, “Quinazolines as inhibitors of endothelin converting enzyme” (Warner-Lambert Company, priority 1997, dated 1998).
Non-standard residues stand in square brackets, D forms with d. Residues, ends and D or L forms follow the SMILES beside them. No end group written: not given here.

Key:
[1] = test system: pressor response of big ET-1; conditions: ganglion-blocked anesthetized rats; cited from earlier work
[2] = test system: vasoconstrictor effects evoked by intravenous injections of big ET-1; conditions: anaesthetized pigs; cited from earlier work
[3] = test system: rats subjected to coronary occlusion and reperfusion; conditions: given IV; cited from earlier work
[4] = test system: caliber of the basilar artery and systemic arterial pressure; conditions: anesthetized dogs, intracisternal big ET-1; cited from earlier work
[5] = test system: effects of big ET-1 in the microvasculature; conditions: anesthetized hamsters; cited from earlier work
[6] = test system: neutral endopeptidase 24.11 (NEP 24.11); test: NEP 24.11 inhibition under ECE assay conditions; type: biochemical, human; conditions: 100 μM thiorphan or 100 nM phosphoramidon
From the text: The cell line, EA.hy926, contains neutral endopeptidase 24.11 (NEP 24.11) which also cleaves big ET-1 to ET-1 and c-terminal fragment (manuscript submitted). […] All the data were obtained in the linear range of time-course curves.

[7] = test system: pressor response of big ET; conditions: micromolar concentrations, in vitro and in vivo; cited from earlier work
[8] = test system: lethality induced by the intravenous infusion of big ET-1; conditions: in vivo; cited from earlier work
[9] = target: T1, endothelin converting enzyme (ECE) (Homo sapiens, UniProt P42892); test: ECE assay (partially purified ECE from EA.hy926, ET-1 production by RIA); type: biochemical; conditions: 100 μM thiorphan or 100 nM phosphoramidon
T1 construct: ECE was partially purified from EA.hy926 grown in 150 roller; endogenous in cells; host or cells: EA.hy926 (human umbilical vein endothelial cells fused with A549); detergent-solubilised membranes, RCA-I lectin eluate
T1 sequence (P42892 whole entry, the tested form may be a part): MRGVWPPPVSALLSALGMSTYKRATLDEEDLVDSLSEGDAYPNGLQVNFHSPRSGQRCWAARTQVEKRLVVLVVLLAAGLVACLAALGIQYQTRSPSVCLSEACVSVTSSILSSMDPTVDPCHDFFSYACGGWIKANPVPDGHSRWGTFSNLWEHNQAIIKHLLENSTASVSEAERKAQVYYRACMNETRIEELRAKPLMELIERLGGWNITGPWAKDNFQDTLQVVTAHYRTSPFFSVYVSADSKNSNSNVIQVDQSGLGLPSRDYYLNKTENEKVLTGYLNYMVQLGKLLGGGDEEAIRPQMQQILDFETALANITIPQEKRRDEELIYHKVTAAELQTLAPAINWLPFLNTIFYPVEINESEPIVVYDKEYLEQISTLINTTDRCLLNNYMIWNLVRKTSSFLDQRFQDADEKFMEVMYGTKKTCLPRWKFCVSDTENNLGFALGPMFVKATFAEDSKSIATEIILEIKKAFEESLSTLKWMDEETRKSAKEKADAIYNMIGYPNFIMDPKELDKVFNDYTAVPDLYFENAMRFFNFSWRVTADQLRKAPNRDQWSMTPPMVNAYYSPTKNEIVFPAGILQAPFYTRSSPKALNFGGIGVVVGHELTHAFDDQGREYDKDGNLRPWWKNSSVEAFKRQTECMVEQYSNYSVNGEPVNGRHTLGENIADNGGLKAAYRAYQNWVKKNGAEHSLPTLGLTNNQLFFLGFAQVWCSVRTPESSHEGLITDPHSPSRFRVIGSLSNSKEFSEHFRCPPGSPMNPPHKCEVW

[10] = test system: isolated nonischemic and ischemic rat hearts; conditions: cited from earlier work; for preischemic increase in coronary perfusion pressure induced by big ET-1 and its proischemic effect: phosphoramidon 100 μM, BQ-123 0.3 μM; for IC50: isolated rat hearts, read-out: IC50, reduction of coronary flow; for time to contracture in globally ischemic rat hearts: pretreatment / 10 nMol big ET-1
[11] = test system: hemodynamic actions of big ET-1 in rat brain; conditions: cited from earlier work
[12] = test system: intracellular conversion of big ET-1 to ET-1; conditions: cultured vascular endothelial cells and smooth muscle cells; cited from earlier work
[13] = test system: gastric mucosal hemorrhagic change; conditions: 50-500 pmol/kg into the left gastric artery; cited from earlier work
behavioral effects = conditions: intracerebroventricular, rats; cited from earlier work
[14] = test system: models of acute renal ischemia and subarachnoid hemorrhage in rats; conditions: cited from earlier work
[15] = test system: ET-1-induced bronchoconstriction and tracheal smooth muscle contraction; conditions: allergic sheep; cited from earlier work
[16] = test system: mouse model of endotoxic shock; conditions: cited from earlier work
blood pressure = conditions: in vivo; cited from earlier work

CC(C)C[C@H](NP(=O)(O)O[C@@H]1O[C@@H](C)[C@H](O)[C@@H](O)[C@H]1O)C(=O)N[C@@H](Cc1c[nH]c2ccccc12)C(=O)O [phosphoramidon]
block of pressor response of big ET-1 [1]: blocked by phosphoramidon in a dose-dependent manner
effect on plasma ET-1 level [2]: did not have any effect on the plasma ET-1 level
vasoconstrictor effects evoked by i.v. big ET-1 [2]: inhibit vasoconstrictor effects
infarct size 24 hour postischemia [3]: significantly reduce infarct size
block of big ET-1 effects on basilar artery caliber and systemic arterial pressure [4]: These effects were blocked by phosphoramidon
effects of big ET-1 in the microvasculature [5]: inhibit the effects of big ET-1
NEP 24.11 inhibition [6]: completely inhibited
block of pressor response of big ET [7]: block the pressor response of big ET
lethality induced by the intravenous infusion of big ET-1 [8]: suppress the lethality
effect on ECE activity at NEP-blocking concentration [9]: without affecting the ECE activity
preischemic increase in coronary perfusion pressure induced by big ET-1 and its proischemic effect [10]: abolished
inhibition of hemodynamic actions of big ET-1 [11]: phosphoramidon sensitive inhibition of hemodynamic actions of big ET-1
inhibition of intracellular conversion of big ET-1 to ET-1 [12]: inhibit the intracellular conversion of big ET-1 to ET-1

ET-1: potent vasoconstrictor, is a 21 amino acid bicyclic peptide
tissue type plasminogen activator release, platelet activating formation and gastric mucosal hemorrhagic change [13]: increased the tissue type plasminogen activator release and platelet activating formation and induced gastric mucosal hemorrhagic change in a dose-dependent manner
IC50 [10]: 12 µM
time to contracture in globally ischemic rat hearts [10]: significantly reduced the time to contracture
behavioral effects (behavioral effects): evoke behavioral effects

COc1cccc(Oc2c(NS(=O)(=O)c3ccc(C(C)(C)C)cc3)ncnc2OCCO)c1 [RO 46-2005]
efficacy in models of acute renal ischemia and subarachnoid hemorrhage [14]: effective

CC(C)C[C@@H]1NC(=O)[C@@H](C(C)C)NC(=O)[C@@H]2CCCN2C(=O)[C@@H](CC(=O)O)NC(=O)[C@@H](Cc2c[nH]c3ccccc23)NC1=O [BQ-123] (cyclo(L[dW][dD]P[dV]))
ET-1-induced bronchoconstriction and tracheal smooth muscle contraction [15]: block ET-1-induced bronchoconstriction and tracheal smooth muscle contraction
preischemic increase in coronary perfusion pressure induced by big ET-1 and its proischemic effect [10]: abolished
survival rate [16]: significantly increased the survival rate

big ET-1: 38 (human) or 39 (porcine) amino acid peptide known as big endothelin or proendothelin (CSCSSLMDKECVYFCHLDIIWVNTPEHVVPYGLGSPRS; ends and bridges not checked; cysteine pairing not given here; UniProt P05305 53-90, looked up)
potency at raising blood pressure relative to ET-1 (blood pressure): equally potent in vivo
IC50 [10]: 0.002 µM
time to contracture in globally ischemic rat hearts [10]: significantly reduced the time to contracture
